From ChEMBL document CHEMBL1201862, “PubChem BioAssay data set” (2004)
The source made the active and inactive calls.

What was measured:
Beta-lactamase [1] = biological target: T1, Beta-lactamase (Pseudomonas aeruginosa, UniProt Q79MP6); assay: […] counterscreen for selective VIM-2 inhibitors: dose response biochemical high throughput screening assay to identify inhibitors of IMP-1 metallo-beta-lactamase.
[2] = biological target: T2, Probable nicotinate-nucleotide adenylyltransferase (Staphylococcus aureus (strain N315), UniProt P65502); assay type: functional, Staphylococcus aureus subsp. aureus N315; settings: read-out: IC50_Mean;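 for IC50 Mean: confirmatory dose-response retesting of NadD inhibitor hits first found in an ultra-high-throughput screen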
[3] = biological target: T3, Calpain-2 catalytic subunit (Sus scrofa, UniProt P43367); assay: m-calpain protease blockers, concentration series – biochemical, fluorogenic peptide substrate, dose response (AID 1420); assay type: functional
T3 sequence (P43367 whole entry): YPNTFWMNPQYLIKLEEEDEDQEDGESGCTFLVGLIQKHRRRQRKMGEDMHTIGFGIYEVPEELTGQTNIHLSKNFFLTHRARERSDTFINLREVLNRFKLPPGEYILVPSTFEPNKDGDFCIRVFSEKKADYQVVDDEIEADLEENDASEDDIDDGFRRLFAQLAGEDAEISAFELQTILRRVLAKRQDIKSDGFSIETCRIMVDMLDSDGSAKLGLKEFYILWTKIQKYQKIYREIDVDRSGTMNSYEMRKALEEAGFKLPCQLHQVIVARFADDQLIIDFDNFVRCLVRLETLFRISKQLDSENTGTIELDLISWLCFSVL

Beta-lactamase [4] = biological target: T1, Beta-lactamase; assay: inhibition of IMP-1 beta-lactamase activity – biochemical, epi-absorbance, selectivity assay for VIM-2 inhibitor project, dose response (AID 1920)
Beta-lactamase [5] = biological target: Beta-lactamase (Salmonella choleraesuis (strain SC-B67), UniProt Q5J463); assay: Epi-absorbance-based counterscreen for selective VIM-2 inhibitors: dose response biochemical high throughput screening assay to identify inhibitors of TEM-1 serine-beta-lactamase.
[6] = CCR5-tropic HIV-1 fusion blockers – cell-based, CCR5-tropic Env, dose response (AID 2279); assay type: functional
[7] = biological target: T2, Probable nicotinate-nucleotide adenylyltransferase; assay type: functional, Staphylococcus aureus subsp. aureus N315
Leucine aminopeptidase = biological target: T4, Leucine aminopeptidase (Plasmodium falciparum 3D7, UniProt Q8IL11); assay: P. falciparum M17LAP inhibitors, primary screen, biochemical, fluorogenic H-Leu-NHMec substrate, 1536-well (AID 1619); assay type: functional
T4 sequence (Q8IL11 whole entry): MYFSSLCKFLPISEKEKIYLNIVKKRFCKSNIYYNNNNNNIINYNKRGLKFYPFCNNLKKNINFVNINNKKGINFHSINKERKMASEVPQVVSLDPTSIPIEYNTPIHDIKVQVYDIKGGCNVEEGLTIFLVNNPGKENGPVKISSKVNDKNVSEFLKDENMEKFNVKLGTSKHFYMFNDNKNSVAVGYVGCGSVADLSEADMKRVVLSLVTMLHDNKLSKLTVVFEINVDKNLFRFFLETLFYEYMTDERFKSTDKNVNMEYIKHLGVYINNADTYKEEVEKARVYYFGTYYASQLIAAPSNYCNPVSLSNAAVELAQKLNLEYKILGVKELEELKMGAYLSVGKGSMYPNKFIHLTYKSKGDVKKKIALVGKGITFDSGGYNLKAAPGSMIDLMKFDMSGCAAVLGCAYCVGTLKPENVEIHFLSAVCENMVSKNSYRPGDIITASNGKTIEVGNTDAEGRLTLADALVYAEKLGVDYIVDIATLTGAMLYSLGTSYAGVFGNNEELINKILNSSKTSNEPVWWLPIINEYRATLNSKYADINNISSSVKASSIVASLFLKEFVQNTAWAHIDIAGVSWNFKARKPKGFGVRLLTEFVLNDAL

Beta Lactamase [8] = biological target: T5, Beta Lactamase (Pseudomonas aeruginosa, UniProt Q932Y6); assay: concentration-dependent VIM-2 enzyme inhibition – biochemical, epi-absorbance readout, selective inhibitors, dose response (AID 1919)
Beta Lactamase [9] = biological target: T5, Beta Lactamase; assay: VIM-2 CCF2 hydrolysis inhibition, assay artifact filter – biochemical, FRET readout, CCF2 substrate, artefact control for selective VIM-2 inhibitor project, dose response (AID 1926)
[10] = A Cell Based Secondary Assay To Explore Cytotoxicity of Compounds that Sensitize Mycobacterium Tuberculosis to Beta-Lactam Antibiotics.; assay type: functional
[11] = biological target: T6, Histone-lysine N-methyltransferase NSD2 (Homo sapiens, UniProt O96028); assay type: biochemical
T6 sequence (O96028 whole entry): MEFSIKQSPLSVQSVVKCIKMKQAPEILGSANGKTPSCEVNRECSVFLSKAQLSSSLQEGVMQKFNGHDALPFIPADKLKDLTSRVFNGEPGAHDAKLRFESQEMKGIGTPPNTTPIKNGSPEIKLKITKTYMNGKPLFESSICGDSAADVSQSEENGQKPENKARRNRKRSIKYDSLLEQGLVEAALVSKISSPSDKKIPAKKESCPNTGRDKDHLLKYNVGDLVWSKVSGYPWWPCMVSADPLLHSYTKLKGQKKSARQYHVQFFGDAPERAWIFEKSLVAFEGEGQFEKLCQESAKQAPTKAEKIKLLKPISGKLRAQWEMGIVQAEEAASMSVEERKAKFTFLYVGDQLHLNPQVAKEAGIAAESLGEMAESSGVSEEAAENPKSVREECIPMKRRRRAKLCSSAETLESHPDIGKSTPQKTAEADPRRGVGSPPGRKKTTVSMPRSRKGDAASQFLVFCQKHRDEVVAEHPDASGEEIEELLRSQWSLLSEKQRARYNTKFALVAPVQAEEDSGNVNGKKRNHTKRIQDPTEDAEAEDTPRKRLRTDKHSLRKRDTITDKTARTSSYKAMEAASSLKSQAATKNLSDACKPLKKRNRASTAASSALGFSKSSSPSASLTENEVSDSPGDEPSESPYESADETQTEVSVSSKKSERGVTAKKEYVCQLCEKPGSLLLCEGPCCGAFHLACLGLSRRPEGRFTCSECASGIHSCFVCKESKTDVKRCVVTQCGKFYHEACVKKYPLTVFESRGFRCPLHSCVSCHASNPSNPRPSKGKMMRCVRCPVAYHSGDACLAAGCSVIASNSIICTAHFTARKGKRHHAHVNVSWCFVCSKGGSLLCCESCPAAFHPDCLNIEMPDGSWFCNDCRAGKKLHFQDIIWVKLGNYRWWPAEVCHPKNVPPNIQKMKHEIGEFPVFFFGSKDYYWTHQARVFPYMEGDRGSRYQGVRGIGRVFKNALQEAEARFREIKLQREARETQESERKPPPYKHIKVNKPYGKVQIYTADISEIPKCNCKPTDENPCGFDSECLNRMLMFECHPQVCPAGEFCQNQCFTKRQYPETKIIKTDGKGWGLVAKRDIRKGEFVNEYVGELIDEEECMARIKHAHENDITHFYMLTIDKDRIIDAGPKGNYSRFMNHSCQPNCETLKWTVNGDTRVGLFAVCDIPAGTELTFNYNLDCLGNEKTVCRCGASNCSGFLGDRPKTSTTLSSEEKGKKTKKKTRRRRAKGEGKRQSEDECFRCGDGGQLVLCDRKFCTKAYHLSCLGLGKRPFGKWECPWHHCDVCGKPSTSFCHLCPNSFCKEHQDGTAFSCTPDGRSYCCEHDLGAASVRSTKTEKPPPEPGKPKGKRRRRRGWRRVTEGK

[12] = antiviral protection against BTV-induced cell death – arbovirus, BSR cells, confirmation (AID 1250); assay type: functional;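 note: protection from viral cytopathic effect measured as cell viability by ATP luminescence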
[13] = biological target: DNA (cytosine-5)-methyltransferase 1 (Homo sapiens, UniProt P26358); assay: inhibition of DNA methylation by DNMT1 – biochemical, fluorescent molecular beacon, confirmation (AID 602386); assay type: functional
Prothrombin = Prothrombin (Bos taurus, UniProt P00735); assay: thrombin protease inhibitors – biochemical, fluorescence polarization, uHTS hits, dose response (AID 602369); assay type: functional
[14] = biological target: 26S proteasome non-ATPase regulatory subunit 14 (Homo sapiens, UniProt O00487); assay: inhibition of proteasome subunit RPN11 – biochemical, fluorescence polarization, uHTS hits, confirmation (AID 602368); assay type: functional
[15] = biological target: 72 kDa type IV collagenase (Homo sapiens, UniProt P08253); assay: Dose Response validation of uHTS RPN11 inhibitor hits using a MMP-2 Fluorescence assay.; assay type: functional
Aminopeptidase N = biological target: T7, Aminopeptidase N (Plasmodium falciparum FcB1/Columbia, UniProt O96935); assay: malaria alanyl aminopeptidase activity blockers – biochemical, fluorogenic H-Leu-NHMec substrate, 1536-well (AID 1445); set-up: species or system Plasmodium falciparum 3D7, 3D7
T7 sequence (O96935 whole entry): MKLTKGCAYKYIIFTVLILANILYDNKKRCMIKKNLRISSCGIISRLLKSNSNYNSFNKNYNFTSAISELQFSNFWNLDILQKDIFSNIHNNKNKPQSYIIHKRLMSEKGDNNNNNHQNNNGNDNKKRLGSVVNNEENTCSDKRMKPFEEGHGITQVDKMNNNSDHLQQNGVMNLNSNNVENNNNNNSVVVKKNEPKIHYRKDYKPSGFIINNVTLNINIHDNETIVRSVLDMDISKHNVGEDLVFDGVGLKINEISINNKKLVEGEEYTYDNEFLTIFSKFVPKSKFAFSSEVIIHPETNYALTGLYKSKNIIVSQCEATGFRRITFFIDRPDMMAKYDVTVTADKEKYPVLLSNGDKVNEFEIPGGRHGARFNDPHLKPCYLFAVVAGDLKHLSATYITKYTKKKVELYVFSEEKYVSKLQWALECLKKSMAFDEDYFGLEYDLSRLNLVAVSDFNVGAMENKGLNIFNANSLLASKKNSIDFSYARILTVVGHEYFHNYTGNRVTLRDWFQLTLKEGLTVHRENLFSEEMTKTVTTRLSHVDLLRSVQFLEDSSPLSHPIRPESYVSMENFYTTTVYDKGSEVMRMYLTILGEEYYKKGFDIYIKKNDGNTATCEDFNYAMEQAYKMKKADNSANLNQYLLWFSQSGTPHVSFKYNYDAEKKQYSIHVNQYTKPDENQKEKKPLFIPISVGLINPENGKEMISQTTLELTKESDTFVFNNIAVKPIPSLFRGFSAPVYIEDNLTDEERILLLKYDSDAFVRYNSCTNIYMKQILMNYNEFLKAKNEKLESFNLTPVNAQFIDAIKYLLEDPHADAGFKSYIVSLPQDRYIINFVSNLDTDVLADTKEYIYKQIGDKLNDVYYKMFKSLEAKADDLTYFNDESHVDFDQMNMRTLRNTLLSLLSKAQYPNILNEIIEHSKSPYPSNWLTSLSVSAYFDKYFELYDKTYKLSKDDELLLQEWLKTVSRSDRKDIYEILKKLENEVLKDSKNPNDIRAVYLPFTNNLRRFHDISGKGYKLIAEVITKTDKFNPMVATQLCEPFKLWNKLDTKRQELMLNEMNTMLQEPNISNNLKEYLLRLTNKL

[16] = biological target: Induced myeloid leukemia cell differentiation protein Mcl-1 (Homo sapiens, UniProt Q07820); assay type: functional
Bcl-2-like protein 10 = biological target: T8, Bcl-2-like protein 10 (Homo sapiens, UniProt Q9HD36); assay: Concentration-response of Bcl-B inhibitors by biochemical FP with TR3 (AID 1243); assay type: functional
T8 sequence (Q9HD36 whole entry): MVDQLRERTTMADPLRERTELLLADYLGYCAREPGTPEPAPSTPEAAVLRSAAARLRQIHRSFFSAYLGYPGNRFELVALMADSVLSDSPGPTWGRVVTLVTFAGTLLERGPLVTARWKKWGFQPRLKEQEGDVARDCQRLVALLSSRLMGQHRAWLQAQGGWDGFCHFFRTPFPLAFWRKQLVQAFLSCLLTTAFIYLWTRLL

[17] = biological target: Muscarinic acetylcholine receptor M3 (Homo sapiens, UniProt P20309); assay: (§1) Discovery of novel allosteric modulators of the M1 muscarinic receptor: Agonist NMS competition at M3. [Related pubchem assays: 1488 (Discovery of novel allosteric modulators of the M1 muscarinic receptor: Agonist Confirmation Assay), 626 (Discovery of Novel Allosteric Modulators of the M1 Muscarinic Receptor: Agonist Primary Screen)]; assay type: functional
[18] = biological target: Muscarinic acetylcholine receptor M2 (Homo sapiens, UniProt P08172); assay: Discovery of novel allosteric modulators of the M1 muscarinic receptor: Agonist NMS competition at M2. [Related pubchem assays: 626 (Discovery of Novel Allosteric Modulators of the M1 Muscarinic Receptor: Agonist Primary Screen), 1488 (Discovery of novel allosteric modulators of the M1 muscarinic receptor: Agonist Confirmation Assay)]; assay type: functional
[19] = biological target: Muscarinic acetylcholine receptor M1 (Rattus norvegicus, UniProt P08482); assay: Discovery of novel allosteric modulators of the M1 muscarinic receptor: Agonist NMS binding at M1. [Related pubchem assays: 626 ]
[20] = biological target: Muscarinic acetylcholine receptor M5 (Homo sapiens, UniProt P08912); assay: as §1, with “M5.” for “M3.”; assay type: functional

T2 sequence (P65502 whole entry): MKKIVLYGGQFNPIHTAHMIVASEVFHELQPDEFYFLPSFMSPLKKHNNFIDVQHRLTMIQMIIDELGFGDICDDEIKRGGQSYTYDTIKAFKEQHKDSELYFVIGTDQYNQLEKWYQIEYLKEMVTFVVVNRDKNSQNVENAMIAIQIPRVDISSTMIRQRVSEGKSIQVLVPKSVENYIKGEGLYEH
T1 sequence (Q79MP6 whole entry): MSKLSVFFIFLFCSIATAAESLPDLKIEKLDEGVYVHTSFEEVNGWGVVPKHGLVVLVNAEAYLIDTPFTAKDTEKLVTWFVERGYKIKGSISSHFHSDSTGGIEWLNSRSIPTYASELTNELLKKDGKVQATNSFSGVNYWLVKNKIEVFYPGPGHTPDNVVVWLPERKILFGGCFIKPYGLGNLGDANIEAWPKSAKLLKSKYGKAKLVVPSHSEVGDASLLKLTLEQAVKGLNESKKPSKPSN
T5 sequence (Q932Y6 whole entry): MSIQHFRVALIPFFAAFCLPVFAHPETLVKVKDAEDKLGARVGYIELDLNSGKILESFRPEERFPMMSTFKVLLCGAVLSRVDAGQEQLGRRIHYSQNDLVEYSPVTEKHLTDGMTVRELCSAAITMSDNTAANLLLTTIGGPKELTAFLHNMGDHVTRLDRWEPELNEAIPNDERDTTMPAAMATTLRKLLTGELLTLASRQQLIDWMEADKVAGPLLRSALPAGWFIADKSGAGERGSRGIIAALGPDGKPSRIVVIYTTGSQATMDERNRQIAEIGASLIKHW
72 kDa type IV collagenase, sequence (P08253 whole entry): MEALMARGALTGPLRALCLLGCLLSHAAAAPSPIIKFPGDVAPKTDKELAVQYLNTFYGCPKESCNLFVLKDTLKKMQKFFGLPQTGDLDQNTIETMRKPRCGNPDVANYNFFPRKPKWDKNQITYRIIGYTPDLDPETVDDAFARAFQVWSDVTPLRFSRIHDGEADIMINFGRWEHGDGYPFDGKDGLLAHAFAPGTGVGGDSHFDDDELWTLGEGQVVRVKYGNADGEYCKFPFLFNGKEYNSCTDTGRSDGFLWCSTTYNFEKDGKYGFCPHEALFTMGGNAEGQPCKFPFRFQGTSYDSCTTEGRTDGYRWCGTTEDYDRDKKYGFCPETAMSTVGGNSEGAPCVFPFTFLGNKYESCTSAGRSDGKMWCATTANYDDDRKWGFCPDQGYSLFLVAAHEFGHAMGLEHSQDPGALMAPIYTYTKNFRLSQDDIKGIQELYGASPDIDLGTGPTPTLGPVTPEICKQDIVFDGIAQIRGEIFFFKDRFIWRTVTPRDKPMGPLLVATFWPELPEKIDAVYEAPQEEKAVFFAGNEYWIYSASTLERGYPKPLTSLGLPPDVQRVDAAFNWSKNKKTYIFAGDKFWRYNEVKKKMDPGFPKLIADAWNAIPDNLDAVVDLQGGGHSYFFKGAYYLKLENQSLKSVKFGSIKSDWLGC
DNA (cytosine-5)-methyltransferase 1, sequence (P26358 whole entry): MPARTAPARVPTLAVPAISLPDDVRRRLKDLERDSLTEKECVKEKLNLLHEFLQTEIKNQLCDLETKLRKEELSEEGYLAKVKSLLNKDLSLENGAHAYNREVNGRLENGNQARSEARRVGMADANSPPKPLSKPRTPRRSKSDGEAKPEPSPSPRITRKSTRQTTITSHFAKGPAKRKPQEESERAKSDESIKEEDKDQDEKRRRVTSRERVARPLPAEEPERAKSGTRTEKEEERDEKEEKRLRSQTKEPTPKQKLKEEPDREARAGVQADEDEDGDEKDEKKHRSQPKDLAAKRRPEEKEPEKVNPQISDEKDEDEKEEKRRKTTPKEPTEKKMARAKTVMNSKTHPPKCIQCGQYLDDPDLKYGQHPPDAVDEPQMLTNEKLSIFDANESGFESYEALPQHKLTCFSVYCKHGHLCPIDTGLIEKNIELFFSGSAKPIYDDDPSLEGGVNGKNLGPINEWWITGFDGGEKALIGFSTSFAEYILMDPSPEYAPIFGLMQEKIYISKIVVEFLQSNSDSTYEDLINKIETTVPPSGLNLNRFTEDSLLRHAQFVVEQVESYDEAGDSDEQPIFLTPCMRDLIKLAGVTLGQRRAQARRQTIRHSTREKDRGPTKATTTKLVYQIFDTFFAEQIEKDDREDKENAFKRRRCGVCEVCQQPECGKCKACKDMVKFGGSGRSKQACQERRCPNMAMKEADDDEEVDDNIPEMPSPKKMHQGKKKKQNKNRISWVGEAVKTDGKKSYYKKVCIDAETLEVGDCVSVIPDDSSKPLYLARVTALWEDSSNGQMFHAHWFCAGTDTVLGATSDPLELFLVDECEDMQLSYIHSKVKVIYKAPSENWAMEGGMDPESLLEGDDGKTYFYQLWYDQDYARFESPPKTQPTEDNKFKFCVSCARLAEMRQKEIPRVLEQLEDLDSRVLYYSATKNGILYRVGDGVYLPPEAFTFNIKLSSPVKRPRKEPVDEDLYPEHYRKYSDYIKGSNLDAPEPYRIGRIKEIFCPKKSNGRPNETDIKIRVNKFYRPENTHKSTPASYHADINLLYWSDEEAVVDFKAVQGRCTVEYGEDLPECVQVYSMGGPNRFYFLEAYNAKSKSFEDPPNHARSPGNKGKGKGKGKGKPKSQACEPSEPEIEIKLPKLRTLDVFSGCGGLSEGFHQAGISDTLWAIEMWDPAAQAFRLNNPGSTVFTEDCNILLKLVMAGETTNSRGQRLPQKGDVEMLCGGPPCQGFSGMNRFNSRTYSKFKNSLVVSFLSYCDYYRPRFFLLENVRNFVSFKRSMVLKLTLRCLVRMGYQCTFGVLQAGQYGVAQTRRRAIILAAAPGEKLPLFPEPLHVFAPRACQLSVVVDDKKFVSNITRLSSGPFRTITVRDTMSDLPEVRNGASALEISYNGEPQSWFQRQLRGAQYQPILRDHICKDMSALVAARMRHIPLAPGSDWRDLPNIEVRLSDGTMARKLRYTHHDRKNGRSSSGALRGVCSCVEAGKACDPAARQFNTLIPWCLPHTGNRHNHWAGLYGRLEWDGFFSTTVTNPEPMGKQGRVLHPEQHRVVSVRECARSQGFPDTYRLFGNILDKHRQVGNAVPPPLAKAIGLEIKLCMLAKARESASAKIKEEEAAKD
Beta-lactamase (Salmonella choleraesuis (strain SC-B67), UniProt Q5J463), sequence (Q5J463 whole entry, the tested form may be a part): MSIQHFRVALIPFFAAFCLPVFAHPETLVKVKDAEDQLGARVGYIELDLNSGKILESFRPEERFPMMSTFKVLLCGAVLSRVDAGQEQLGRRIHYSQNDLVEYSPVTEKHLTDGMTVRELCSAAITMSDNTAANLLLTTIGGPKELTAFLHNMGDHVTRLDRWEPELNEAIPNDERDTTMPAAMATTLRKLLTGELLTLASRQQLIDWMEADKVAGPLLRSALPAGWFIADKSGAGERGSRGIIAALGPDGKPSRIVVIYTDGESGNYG
26S proteasome non-ATPase regulatory subunit 14, sequence (O00487 whole entry): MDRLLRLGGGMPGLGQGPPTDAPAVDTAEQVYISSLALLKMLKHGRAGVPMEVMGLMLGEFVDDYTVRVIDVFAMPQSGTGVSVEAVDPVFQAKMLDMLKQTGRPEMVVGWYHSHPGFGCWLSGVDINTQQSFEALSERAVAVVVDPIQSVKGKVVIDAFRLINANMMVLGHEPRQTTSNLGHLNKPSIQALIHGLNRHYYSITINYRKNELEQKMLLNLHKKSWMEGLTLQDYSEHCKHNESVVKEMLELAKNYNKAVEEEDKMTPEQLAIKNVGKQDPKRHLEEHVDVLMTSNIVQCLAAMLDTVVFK
Induced myeloid leukemia cell differentiation protein Mcl-1, sequence (Q07820 whole entry): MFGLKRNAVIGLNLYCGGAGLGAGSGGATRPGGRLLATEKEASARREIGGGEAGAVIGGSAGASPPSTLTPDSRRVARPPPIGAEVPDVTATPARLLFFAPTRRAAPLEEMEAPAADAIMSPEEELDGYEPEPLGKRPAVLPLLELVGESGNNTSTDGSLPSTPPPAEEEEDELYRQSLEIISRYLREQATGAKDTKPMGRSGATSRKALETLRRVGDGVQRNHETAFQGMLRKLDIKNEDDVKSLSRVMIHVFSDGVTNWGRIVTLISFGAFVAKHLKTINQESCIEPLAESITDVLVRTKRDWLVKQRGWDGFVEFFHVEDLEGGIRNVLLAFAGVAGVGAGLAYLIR
Muscarinic acetylcholine receptor M1, sequence (P08482 whole entry): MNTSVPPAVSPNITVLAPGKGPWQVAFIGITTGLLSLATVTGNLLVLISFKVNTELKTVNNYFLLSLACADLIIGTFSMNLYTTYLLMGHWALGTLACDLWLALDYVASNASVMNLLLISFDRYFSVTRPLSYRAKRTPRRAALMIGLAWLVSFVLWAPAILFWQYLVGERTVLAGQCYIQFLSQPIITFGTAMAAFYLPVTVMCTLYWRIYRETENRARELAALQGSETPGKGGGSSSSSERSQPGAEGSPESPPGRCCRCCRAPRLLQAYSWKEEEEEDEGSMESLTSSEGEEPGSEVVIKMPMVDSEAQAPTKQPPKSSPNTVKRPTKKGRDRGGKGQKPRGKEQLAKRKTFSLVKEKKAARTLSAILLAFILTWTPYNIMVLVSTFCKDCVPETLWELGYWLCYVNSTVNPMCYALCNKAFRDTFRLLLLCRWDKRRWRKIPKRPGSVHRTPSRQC
Muscarinic acetylcholine receptor M2, sequence (P08172 whole entry): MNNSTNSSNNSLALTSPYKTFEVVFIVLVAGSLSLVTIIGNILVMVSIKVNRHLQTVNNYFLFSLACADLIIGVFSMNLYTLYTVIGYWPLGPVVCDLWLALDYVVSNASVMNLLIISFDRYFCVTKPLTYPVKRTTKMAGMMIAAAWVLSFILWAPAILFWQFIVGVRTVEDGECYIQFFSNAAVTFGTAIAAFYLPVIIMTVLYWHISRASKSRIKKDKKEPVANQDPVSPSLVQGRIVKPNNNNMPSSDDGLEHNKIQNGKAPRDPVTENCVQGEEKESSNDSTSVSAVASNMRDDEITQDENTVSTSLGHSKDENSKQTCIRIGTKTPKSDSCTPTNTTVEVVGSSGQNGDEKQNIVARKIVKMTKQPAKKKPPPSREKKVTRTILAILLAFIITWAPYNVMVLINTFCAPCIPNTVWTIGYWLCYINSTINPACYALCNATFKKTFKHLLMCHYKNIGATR

O=C(O)c1cccc(NC(=S)N/N=C/c2ccccc2OCc2cccc(Br)c2)c1
> 50 µM (not active): IC50 [3]
inactive: IC50 (Beta-lactamase [1]) > 59.6 µM | IC50 (Beta-lactamase [4]) > 59.6 µM | IC50 (Beta-lactamase [5]) > 59.6 µM
active: IC50 [2] 15.8 µM | IC50 [6] 44.4 µM | IC50 [7] 5.97 µM | IC50 (Leucine aminopeptidase) 15.8 µM | IC50 (Beta Lactamase [8]) 9.15 µM | IC50 (Beta Lactamase [9]) 1.16 µM

CCOc1ccccc1C(=O)Nc1cccc(-c2ccc3nncn3n2)c1
active: CC50 [10] > 40 µM

Cc1ccc(-n2cccc2/C=C2/C(=N)N3C(=NC2=O)SN=C3S(C)(=O)=O)cc1Cl
inactive: IC50 [15] > 100 µM
active: AC50 [11] 8.75 µM | IC50 [12] 28.9 µM | IC50 [13] 7.72 µM | IC50 (Prothrombin) 21.1 µM | IC50 [14] 13.4 µM | IC50 (Aminopeptidase N) 15 µM | IC50 [16] 1.86 µM

O=C1NN(c2ccc(F)c(Cl)c2)C(=O)/C1=C\c1ccco1
active: EC50 (Bcl-2-like protein 10) 33.4 µM

CCOC(=O)N1CCC(NCCNC(=O)c2cccs2)CC1
inconclusive: EC50 [17] 77 µM | EC50 [18] 48.9 µM | EC50 [19] 14.4 µM | EC50 [20] 88.4 µM
